Assay results: the supplement of paper PMC13207355

Tests used:
Conditions in all cases: exposure time: 72 h
E28 [1] = patient-derived glioblastoma stem cells of classical subtype; test: phenotypic distance (Euclidean, principal components) from DMSO controls (arbitrary units); higher = stronger morphological change
E34 [2] = patient-derived glioblastoma stem cells of proneural subtype; test: as above
E31 [3] = patient-derived glioblastoma stem cells of proneural subtype; test: as above
E13 [4] = patient-derived glioblastoma stem cells of classical subtype; test: as above
E57 [5] = patient-derived glioblastoma stem cells of mesenchymal subtype; test: as above
E21 [6] = patient-derived glioblastoma stem cells of mesenchymal subtype; test: as above
FT3469 [7] = normal neural stem cell line; test: as above
E28 [8] = test: surviving fraction (nuclei count normalised to DMSO); higher = more cells surviving (less toxic)
E34 [9] = test: as above
E31 [10] = test: as above
E13 [11] = test: as above
E57 [12] = test: as above
E21 [13] = test: as above
FT3469 [14] = test: as above
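For phenotypic distance (Euclidean, principal components) from DMSO controls in this document: cell Painting imaging in 384-well plates, CellProfiler features reduced to at least 20 principal components, Euclidean distance versus same-plate DMSO vehicle wells (0.1% v/v), median over six images per well.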
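For surviving fraction (nuclei count normalised to DMSO) in this document: nuclei counted by high-content imaging of Hoechst-stained cells in laminin-coated 384-well plates, relative to 0.1% DMSO vehicle wells, with staurosporine as cell-death control.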

COc1cc2c(cc1O)CC[C@@H]1[C@@H]2CC[C@]2(C)[C@@H](O)CC[C@@H]12 [2-methoxyestradiol]
phenotypic distance (E28 [1]; 4.1 nM): 0.862 | phenotypic distance (E28 [1]; 12.3 nM): 1.15 | phenotypic distance (E28 [1]; 37 nM): 0.941 | phenotypic distance (E28 [1]; 111.1 nM): 1.27 | phenotypic distance (E28 [1]; 333.3 nM): 0.698 | phenotypic distance (E28 [1]; 1000 nM): 1.54 | phenotypic distance (E28 [1]; 3000 nM): 3.97 | phenotypic distance (E34 [2]; 4.1 nM): 0.764 | phenotypic distance (E34 [2]; 12.3 nM): 2.41 | phenotypic distance (E34 [2]; 37 nM): 0.956 | phenotypic distance (E34 [2]; 111.1 nM): 0.641 | phenotypic distance (E34 [2]; 333.3 nM): 0.508 | phenotypic distance (E34 [2]; 1000 nM): 1.21 | phenotypic distance (E34 [2]; 3000 nM): 4.96 | phenotypic distance (E31 [3]; 4.1 nM): 0.701 | phenotypic distance (E31 [3]; 12.3 nM): 0.672 | phenotypic distance (E31 [3]; 37 nM): 0.712 | phenotypic distance (E31 [3]; 111.1 nM): 0.758 | phenotypic distance (E31 [3]; 333.3 nM): 0.88 | phenotypic distance (E31 [3]; 1000 nM): 1.61 | phenotypic distance (E31 [3]; 3000 nM): 5.31 | phenotypic distance (E13 [4]; 4.1 nM): 0.645 | phenotypic distance (E13 [4]; 12.3 nM): 0.821 | phenotypic distance (E13 [4]; 37 nM): 1.01 | phenotypic distance (E13 [4]; 111.1 nM): 1.47 | phenotypic distance (E13 [4]; 333.3 nM): 0.958 | phenotypic distance (E13 [4]; 1000 nM): 1.4 | phenotypic distance (E13 [4]; 3000 nM): 5.03 | phenotypic distance (E57 [5]; 4.1 nM): 0.835 | phenotypic distance (E57 [5]; 12.3 nM): 1.06 | phenotypic distance (E57 [5]; 37 nM): 0.97 | phenotypic distance (E57 [5]; 111.1 nM): 0.943 | phenotypic distance (E57 [5]; 333.3 nM): 0.975 | phenotypic distance (E57 [5]; 1000 nM): 2.06 | phenotypic distance (E57 [5]; 3000 nM): 7.41 | phenotypic distance (E21 [6]; 4.1 nM): 1 | phenotypic distance (E21 [6]; 12.3 nM): 1.01 | phenotypic distance (E21 [6]; 37 nM): 0.858 | phenotypic distance (E21 [6]; 111.1 nM): 1.42 | phenotypic distance (E21 [6]; 333.3 nM): 1.01 | phenotypic distance (E21 [6]; 1000 nM): 1.82 | phenotypic distance (E21 [6]; 3000 nM): 6.05 | phenotypic distance (FT3469 [7]; 4.1 nM): 1.02 | phenotypic distance (FT3469 [7]; 12.3 nM): 0.62 | phenotypic distance (FT3469 [7]; 37 nM): 0.868 | phenotypic distance (FT3469 [7]; 111.1 nM): 0.854 | phenotypic distance (FT3469 [7]; 333.3 nM): 0.793 | phenotypic distance (FT3469 [7]; 1000 nM): 0.919 | phenotypic distance (FT3469 [7]; 3000 nM): 3.47 | surviving fraction (E28 [8]; 4.1 nM): 1.14 | surviving fraction (E28 [8]; 12.3 nM): 0.843 | surviving fraction (E28 [8]; 37 nM): 0.86 | surviving fraction (E28 [8]; 111.1 nM): 0.687 | surviving fraction (E28 [8]; 333.3 nM): 0.862 | surviving fraction (E28 [8]; 1000 nM): 0.768 | surviving fraction (E28 [8]; 3000 nM): 0.41 | surviving fraction (E34 [9]; 4.1 nM): 0.925 | surviving fraction (E34 [9]; 12.3 nM): 0.876 | surviving fraction (E34 [9]; 37 nM): 1.11 | surviving fraction (E34 [9]; 111.1 nM): 1.07 | surviving fraction (E34 [9]; 333.3 nM): 1.02 | surviving fraction (E34 [9]; 1000 nM): 0.876 | surviving fraction (E34 [9]; 3000 nM): 0.388 | surviving fraction (E31 [10]; 4.1 nM): 1.08 | surviving fraction (E31 [10]; 12.3 nM): 0.913 | surviving fraction (E31 [10]; 37 nM): 0.985 | surviving fraction (E31 [10]; 111.1 nM): 0.862 | surviving fraction (E31 [10]; 333.3 nM): 0.731 | surviving fraction (E31 [10]; 1000 nM): 0.63 | surviving fraction (E31 [10]; 3000 nM): 0.194 | surviving fraction (E13 [11]; 4.1 nM): 0.992 | surviving fraction (E13 [11]; 12.3 nM): 0.961 | surviving fraction (E13 [11]; 37 nM): 0.838 | surviving fraction (E13 [11]; 111.1 nM): 1.04 | surviving fraction (E13 [11]; 333.3 nM): 0.816 | surviving fraction (E13 [11]; 1000 nM): 0.777 | surviving fraction (E13 [11]; 3000 nM): 0.174 | surviving fraction (E57 [12]; 4.1 nM): 1.04 | surviving fraction (E57 [12]; 12.3 nM): 1.02 | surviving fraction (E57 [12]; 37 nM): 1.09 | surviving fraction (E57 [12]; 111.1 nM): 1.06 | surviving fraction (E57 [12]; 333.3 nM): 1.03 | surviving fraction (E57 [12]; 1000 nM): 0.891 | surviving fraction (E57 [12]; 3000 nM): 0.19 | surviving fraction (E21 [13]; 4.1 nM): 0.888 | surviving fraction (E21 [13]; 12.3 nM): 0.932 | surviving fraction (E21 [13]; 37 nM): 0.919 | surviving fraction (E21 [13]; 111.1 nM): 0.885 | surviving fraction (E21 [13]; 333.3 nM): 0.928 | surviving fraction (E21 [13]; 1000 nM): 0.803 | surviving fraction (E21 [13]; 3000 nM): 0.257 | surviving fraction (FT3469 [14]; 4.1 nM): 0.794 | surviving fraction (FT3469 [14]; 12.3 nM): 0.981 | surviving fraction (FT3469 [14]; 37 nM): 1 | surviving fraction (FT3469 [14]; 111.1 nM): 0.858 | surviving fraction (FT3469 [14]; 333.3 nM): 0.846 | surviving fraction (FT3469 [14]; 1000 nM): 0.855 | surviving fraction (FT3469 [14]; 3000 nM): 0.527
